Experimental data published in EP1369114A1, “Use of tryptophan metabolites as pharmaceutical agents” (Terness, Peter, Priv. Doz. Dr., priority 2002, dated 2003).

Test system: T cells activated with allogeneic dendritic cells
Experiment: Allogeneic restimulation, with donor-specific or third-party DCs, of T cells activated with allogeneic DCs
Type: cell-based, human
Parameters: restimulation with donor-specific DCs: dose or concentration left out as unconfirmed
Description: • (a) Allogeneic T-cell response. DCs were infected with recombinant IDO-adeno-GFP (DC-IDO-GFP), IDO-adeno (DC-IDO) or with control adenoviruses (DC-adeno) at a MOI (multiplicity of infection) up to 500 for 2 days. Lymphocytes (PBMCs) were separated from peripheral blood of healthy donors by density gradient centrifugation and typed for HLA antigens. Only HLA-DR-different responder lymphocytes were used for DC-induced stimulation. Native DCs only, lymphocytes only, native DCs + allogeneic lymphocytes, DC-IDO-GFP + allogeneic lymphoytes, DC-IDO + allogeneic lymphoytes, DC-adeno + allogeneic lymphocytes (each time 10^5 DC + 10^5 lymphocytes in 0.2ml medium) were cultured in RPMI 1640 medium (Gibco BRL Life Technologies GmbH, Eggenstein, Germany) with 10% fetal calf serum (FCS) (final tryptophan concentration 5.25 mg/l = 25.69 uM) and Penicillin G/Streptomycin. After 5 days, ^3[H]-thymidin was added for 12hrs and the number of counts (counts per minute = cpm) determined in a (3-counter (Inotech Biosystems, Lansing, MI). In order to verify whether IDO expression or adenovirus infection harm the DCs, 10^5 cells were infected with IDO-adeno-GFP, IDO-adenovirus, or adenovirus only at a stepwise decreasing MOI (500, 250, 125, ........ 3.9) and cell viability was measured in FACS following double staining with 7-AAD and anti-CD83 antibody-PE. The percentage of dead cells never exceeded 30% for any MOI following IDO-adeno-GFP- or IDO-adeno-infection and 40% following adenovirus(control)-infection. Moreover, these values were not higher than those of native DCs cultured for the same period of time. […] After 2 days, cell proliferation was assessed by measuring ^3[H]-thymidin incorporation (cpm) as described. • (c) Tryptophan metabolite titration curves. […] After 2 days, ^3[H] thymidin was added and the number of counts recorded. […] After another 2 days, ^3[H] thymidin was added and cpm determined. […] 3[H] thymidin was added to all cultures and the number of counts (cpm) determined. • (e) Tryptophan titration curve. […]

Nc1ccccc1C(=O)CC(N)C(=O)O (stereo not drawn) [kynurenine] was tested, and the “restimulation with third-party DCs” value (extremely high doses (1500µM or 750µM) of kynurenine) was “only minimal reactions”, the “restimulation with donor-specific DCs” value (kynurenine in primary stimulation, 5 days, washed) was “cannot be restimulated with DCs from the same donor” and the “restimulation with third-party DCs” value (medium or low doses (375µM - 47µM) of kynurenine) was “significant restimulation”.
